Test system: DLD-1 cells
Assay: in vitro test with cancerous DLD1 colon cells treated continuously
Format: cell-based
Conditions: continuous treatment, about 125 μg·ml of Formula (2)
Procedure: FIG. 1 illustrates the survival percentage colon DLD-1 carcinoma cells […] after continuous treatment with Formula (2).
FIG. 1 illustrates the results of an in vitro test with cancerous DLD1 colon cells treated continuously with Formula (2). The survival percentage for DLD-1 cells decreases from 100 percent without treatment to less than 1 percent in the presence of continuous treatment of about 125 μg·ml of Formula (2).

SMILES: Cc1cccc(NC(C)c2ccccc2C)c1 (stereo not shown) [Formula (2), 3-methyl-N-(1-o-tolylethyl)benxenamine]
- survival percentage for DLD-1 cells: less than 1%
